Data set [1] relates to N2a cells. Kind of data set: Inhibitory activity against neuronal apoptosis by beta amyloid (CCK-8), N2a cells. The conditions noted are these: for viability at 5 µM: Mus musculus, N2a, read-out: Cell viability (%) (N2a cells); for Inhibition of cytotoxicity caused by beta amyloid treatment (in words): Table 9: N2a cells 5 μM and neuron cells 500 nM. Type of data set: cell-based, mouse. The procedure:
(§1) The inhibitory activities of the compounds of the present invention against neuronal apoptosis by beta amyloid, known as the major cytotoxic substance in neurodegenerative diseases, were analyzed in N2a cells (ATCC, CCL-131, mouse neuroblastoma cell line) and neuron cells (primary mouse cortical neuron cells) isolated in the same manners as in Test Example 2. The media used in Test Example 3 and Test Example 2 were used as a medium for the N2a cells and as a medium for the neuron cells, respectively. Specifically, N2a cells (3×10^4 cells) and neuron cells (8×10^4 cells), along with the respective media, were added to each well of a 96-well plate and then incubated overnight at 37° C. in a CO2 incubator. The cells were treated with the compound of Example 10 and the compound of Example 29 at the concentrations of 5 μM and 500 nM, respectively, treated with 20 μM of beta amyloid after 30 minutes therefrom, and then incubated at 37° C. in a CO2 incubator for 72 hours. The cells were treated with 10 μL of CCK-8 reagent (Enzo Life Science, ALX-850-039-KI02) and then incubated at 37° C. in a CO2 incubator for 2 hours. Three wells were tested for each group and each absorbance was measured at 450 nm. The absorbance value of the untreated control group was set to 100% cell viability. The cell viability of each group was calculated from the respective absorbance values.

Data set [2] concerns N2a cells. Kind of data set: Autophagy flux by electron microscope imaging. Type of data set: cell-based, mouse. The procedure:
N2a cells (ATCC, CCL-131, mouse neuroblastoma cell line) (3×10^4 cells) and a medium (DMEM (Dulbecco's modified Eagle's medium, Gibco, 11995-065) supplemented with 5% heat-inactivated fetal bovine serum, FBS; Gibco, 16000-044) and 50 μg/ml penicillin-streptomycin (Gibco, 15140-122) were added to each well of a 6-well plate and incubated overnight at 37° C. in a CO2 incubator. The compound of Example 29 (5 μM) and rapamycin (10 μM) were respectively treated and then incubated at 37° C. in a CO2 incubator for 24 hours. Three wells per each group were subject to electron microscope block formation and then pre-fixation, post-fixation, dehydration, substitution, and embedding were carried out according to a flat-embedding method. After ultra-thin sections having a thickness of 70 nm were prepared, heavy metal staining (uranyl acetate, lead citrate) was carried out on the each section, which was photographed through a mosaic imaging technique for imaging the entire cells. In addition, the results obtained by measuring the numbers of the total autophagies (autophagic vesicles), autophagosomes, and autolysosomes per cell according to the treatment groups are shown in Table 3 below. In Table 3 below, the control means the untreated control.

The test system of data set [3] is primary mouse cortical neuron cells. Kind of data set: Autophagic vesicle formation (CYTO-ID Autophagy Detection Kit). Type of data set: cell-based. The conditions noted are these: for Cyto-ID fluorescence value (relative intensity): 5 μM, 24 hours, untreated control = 1; for Autophagic vesicle formation compared to rapamycin (in words): at ½ concentration of rapamycin (5 μM vs 10 μM). The method, then:
Autophagy lysosomal pathway (ALP) activation by the compounds of the present invention was verified, through measuring the degree of autophagic vesicle formation in neuron cells with the CYTO-ID™ Autophagy Detection Kit (ENZ-51031-K200, Enzo Life Sciences, Inc.). Neuron cells (i.e., primary mouse cortical neuron cells) were isolated from mice using an enzymatic digest method. Specifically, primary mouse cortical neuron cells were isolated by incubating the cortice tissues derived from 16 day embryonic C57BL6 mice, at 37° C. for 30 minutes, with 20 U/ml papain (Worthington Biochemical Corporation, LK003176) and 0.005% DNase I (Worthington Biochemical Corporation, LK003170).
The primary mouse cortical neuron cells (8×10^4 cells) and a medium (a neural cell culture media containing 2 mM L-glutamine (Gibco, 25030-081), N2 supplement (Gibco, 17502-048), B27 supplement (Gibco, 17504-044), and 50 μg/ml penicillin-streptomycin (Gibco, 15140-122)) were added to each well of a 96-well plate and then incubated overnight at 37° C. in a CO2 incubator. The compound of Example 10 (5 μM), the compound of Example 29 (5 μM), and rapamycin (10 μM) were respectively treated to the cells, which were incubated at 37° C. in a CO2 incubator for 24 hours. After each well was washed with 1×Assay Buffer (Enzo Life Science, ENZ-51031-K200), 0.2 μl of Cyto-ID autophagy dye and 0.1 μl of Hoechst 33342 were treated to the cells, which were incubated at 37° C. in a CO2 incubator for 30 minutes. After each well was washed with 1×Assay Buffer (Enzo Life Science, ENZ-51031-K200), the fluorescence values of Cyto-ID (EX: 480 nm, EM: 530 nm) and Hoechst 33342 (EX: 340 nm, EM: 480 nm) were respectively measured with a fluorometer. Three wells were tested for each group. After normalization was carried out through dividing the Cyto-ID fluorescence value of each well by Hoechst 33342 fluorescence value, each relative intensity was calculated by setting that of the untreated control to 1.

For data set [4] the test system is unchanged. Kind of data set: Inhibitory activity against neuronal apoptosis by beta amyloid (CCK-8), neuron cells. The settings on record: Cortical neurone, read-out: Cell viability (%) (Neuron cells). Type of data set: cell-based. The procedure:
as §1

Data set [5] has as its system dimethylnitrosamine (DMN)-induced liver injury male SD rats. Kind of data set: Liver function-improving activities by oral administration in the liver injury model (2). Type of data set: in vivo, rat. The method, then:
Specifically, 7-week-old male SD rats (Orient Bio, Korea) were accommodated to the laboratory environment at room temperature for 7 days. General symptoms were observed and then only healthy animals were used for the experiment. The rats were divided into 5 groups (n=10 for each group), i.e., the normal control group, the group to which only DMN is administered, and the group to which both the compound of the present invention (the compound of Example 23, 26, or 29) and DMN are administered. DMN was dissolved in purified water and then administered intraperitoneally at the dose of 10 mg/kg for 3 consecutive days per week (3 times per week, for 4 weeks). Blood samples were collected after the completion of the fourth-week liver injury inducement and then the serum ALT (Alanine Transaminase) values and the serum AST (Aspartate Transaminase) values were measured so as to confirm the liver injury thereof. […] Blood samples were collected on Day 0 (1 day after the completion of the fourth-week liver injury inducement) and Day 7, 14, 21 and 28 after the administration of the test materials. The collected blood was injected into a vacutainer tube containing a clot activator and then allowed to stand at room temperature for about 20 minutes so as to coagulate each blood sample. After centrifugation for 10 minutes, the resulting serums were subjected to blood-biochemical tests. In addition, at 24 hours after the last administration, an autopsy for hepatectomy and fixation was performed to prepare the tissue specimens thereof. After preparing the slides with the tissue specimens, hematoxylin and eosin (H&E) staining was performed thereon for microscopic observation of damages to liver tissue and inflammatory cell infiltrations in liver tissues. In addition, Masson's trichrome staining was also performed thereon for microscopic observation of collagen fiber depositions in liver tissues. The results obtained from the measurements were subject to group comparison, through parametric multiple comparisons or non-parametric multiple comparisons, with SPSS. When P<0.05, it was determined to be statistically significant. […] Therefore, it can be confirmed that the compounds of the present invention have excellent treating activity against liver fibrosis. […] From the results of FIG. 4, the degrees of damage to liver tissue and inflammatory cell infiltration in liver tissues were measured. And also, from the results of FIG. 4, the degree of collagen fiber deposition in liver tissues was measured.

Data set [6] relates to N2a cells. Kind of data set: Inhibitory activities against mitochondrial damage by rotenone (XF Cell Mito Stress Test). Type of data set: cell-based, mouse. The conditions noted are these: 5 μM + 10 μM rotenone. The method, then:
The inhibitory activities of the compounds of the present invention against mitochondrial damage by rotenone, known as the major cytotoxic substance in neurodegenerative diseases, were analyzed in N2a cells (ATCC, CCL-131, mouse neuroblastoma cell line). Specifically, N2a cells (3×10^4 cells) and a medium (DMEM (Dulbecco's modified Eagle's medium, Gibco, 11995-065) supplemented with 5% heat-inactivated fetal bovine serum (FBS; Gibco, 16000-044) and 50 μg/ml penicillin-streptomycin (Gibco, 15140-122) were added to each well of a XF24-well culture plate and then incubated overnight at 37° C. in a CO2 incubator. The cells were treated with the compound of Example 10 (5 μM), treated with 10 μM of rotenone after 30 minutes therefrom, and then incubated at 37° C. in a CO2 incubator for 24 hours. After the treatment with a XF Cell Mito Stress Test Kit (Seahorse Bioscience, 103015-100) according to the manufacturer's instructions, the level of mitochondrial respiration was measured, using an XF24 Extracellular Flux Analyzer (Seahorse Bioscience). Four wells were tested for each group; and the basal respiration, the ATP production, the maximal respiration, and the spare respiratory capacity were measured. The levels of each mitochondrial respiration were normalized by the protein quantification value. The basal respiration of the untreated control group was set to 100% and the remaining values are shown. In Table 10, the control group represents a group treated with only 10 μM of rotenone.

Setting [7] is: 0 week (Day 0, after 4 weeks DMN, before administration).
Where [8] appears, read: 1 week, 25 mg/kg oral once a day after 4 weeks DMN.
Setting [9] is: 2 weeks, 25 mg/kg oral once a day after 4 weeks DMN.
Where [10] appears, read: 3 weeks, 25 mg/kg oral once a day after 4 weeks DMN.
Where [11] appears, read: 4 weeks, 25 mg/kg oral once a day after 4 weeks DMN.
Where [12] appears, read: 24 hours, basal respiration of untreated control = 100%.

Data on two molecules can be found in US12503451B2, “2-arylthiazole derivative or salt thereof, preparation method therefor, and pharmaceutical composition comprising same” (HEXAPHARMATEC CO., LTD., priority 2020, dated 2025).

The structures appear in SMILES notation. Where a name gives a salt, the structure may show the parent alone. Read-outs that look alike come from different tables or passages of the source.

As usually defined, the viability is a read-out of living cells in per cent, often relative to untreated cells.

Consider `CCN(CC)CCOc1ccc(-c2nc(C)c(C(=O)NCC3(N(C)C)CCOCC3)s2)cc1C#N.Cl.Cl` [Example 29, N-((4-(dimethylamino)tetrahydro-2H-pyran-4-yl)methyl)-2-(4-(2-diethylamino)ethoxy-3-cyanophenyl)-4-methylthiazole-5-carboxamide hydrochloride], for which the viability at 5 µM in the data set with N2a cells [1] (72 h) came to 68.5%. Besides, the “Inhibition of cytotoxicity caused by beta amyloid treatment (in words)” value with N2a cells [1] is “significantly inhibit the cytotoxicity caused by beta amyloid treatment”. Besides, the “Numbers of the autophagy per cell: Autolysosome” value in the data set on N2a cells [2] (5 μM, 24 hours) amounted to 14.9. The “Numbers of the autophagy per cell: Autophagic vesicles” value in the data set on N2a cells [2] (5 μM, 24 hours) is on record as 22.3. Also, in the data set with N2a cells [2] (5 μM, 24 hours), the “Numbers of the autophagy per cell: Autophagosome” value was determined as 6.9. In addition, the “Autophagic vesicle and autolysosome formation compared to rapamycin (in words)” value in the data set with N2a cells [2] (at ½ concentration of rapamycin (5 μM vs 10 μM)) is on record as “significantly increase autophagic vesicle formation, especially autolysosome formation”. For the same molecule, the “Cyto-ID fluorescence value (relative intensity)” value in data set [3] turned out to be 2.171. Besides, the “Autophagic vesicle formation compared to rapamycin (in words)” value in data set [3] is “significantly increase autophagic vesicle formation”. Further, the viability at 0.5 µM in data set [4] (72 h) was 53.3%. In addition, the “ALT values (average value)” value is 219.29 U/L in data set [5] (setting [7]); 99.31 U/L in data set [5] (setting [8]); 66.57 U/L in data set [5] (setting [9]); 53.03 U/L in data set [5] (setting [10]); 52.97 U/L in data set [5] (setting [11]). Also, the “AST values (average value)” value in data set [5] (setting [7]) was determined as 376.67 U/L; in data set [5] (setting [8]), 164.60 U/L; in data set [5] (setting [9]) it was 143.87 U/L; in data set [5] (setting [10]), 127.65 U/L; in data set [5] (setting [11]), 123.33 U/L.
For the molecule `Cc1nc(-c2ccc(OCC(C)C)c(C#N)c2)sc1C(=O)NCC1(N(C)C)CCOCC1` [Example 10, N-((4-(dimethylamino)tetrahydro-2H-pyran-4-yl)methyl)-2-(3-cyano-4-isobutoxyphenyl)-4-methylthiazole-5-carboxamide hydrochloride], the viability at 5 µM in the data set on N2a cells [1] (5 μM, 20 μM beta amyloid, 72 hours, untreated control = 100%) was found to be 68.9%. For the same molecule, in the data set with N2a cells [1], the “Inhibition of cytotoxicity caused by beta amyloid treatment (in words)” value is listed as “significantly inhibit the cytotoxicity caused by beta amyloid treatment”. Moreover, the “Recovery of mitochondrial damage by rotenone treatment (in words)” value in the data set on N2a cells [6] was “recovers the mitochondrial damage by rotenone treatment in a statistically significant level”. Further, in the data set on N2a cells [6] (setting [12]), the “Mitochondrial respiration (%): ATP production” value was found to be 31.65%, the “Mitochondrial respiration (%): Basal” value is recorded as 51.69%, the “Mitochondrial respiration (%): Maximal” value is on record as 62.28% and the “Mitochondrial respiration (%): Spare” value is 16.33%. Also, in data set [3], the “Cyto-ID fluorescence value (relative intensity)” value is 1.813 and the “Autophagic vesicle formation compared to rapamycin (in words)” value is “significantly increase autophagic vesicle formation”. Further, the viability at 0.5 µM in data set [4] (500 nM, 20 μM beta amyloid, 72 hours, untreated control = 100%) worked out at 52.2%.
